Here are results for 13 compounds from ChEMBL document CHEMBL5143582, “Genome-Guided Discovery of Antifungal Filipins from a Deep-Sea-Derived Streptomyces antibioticus” (2022).

Structures are written as SMILES. Values after ≈ are worked out from the molar mass of the structure shown.

The assay deals with Candida albicans. Description: Antifungal activity Candida albicans CMCC(F) 98001 assessed as inhibition of fungal growth incubated for 24 hrs by broth micro dilution method. The class given is functional.

Take `C\C1=C/C=C/C=C/C=C/C=C/C[C@@H](C)OC(=O)C[C@@H](O)C[C@@H](O)C[C@@H](O)C[C@@H](O)C[C@@H](O)C[C@@H]1O`: the MIC (in general, the lowest concentration that inhibits growth of the organism) was over 12.5 µg/mL.

For the compound `C\C1=C/C=C/C=C/C=C/C=C/[C@H](O)[C@@H](C)OC(=O)[C@H](CCCC(C)C)[C@@H](O)C[C@@H](O)C[C@@H](O)C[C@@H](O)C[C@@H](O)C[C@@H](O)C[C@@H]1O`, the minimal inhibitory concentration (MIC) came to 1.56 µg/mL (≈ 2.44 µM).

Turning to `CCCCCC[C@@H]1CC[C@@H](O)C[C@@H](O)C[C@@H](O)C[C@@H](O)C[C@@H](O)C[C@@H](O)C[C@H](O)/C(C)=C/C=C/C=C/C=C/C=C/[C@H](O)[C@@H](C)OC1=O`, the MIC was over 12.5 µg/mL.

On to `CCCC[C@H]1C(=O)O[C@H](C)[C@@H](O)/C=C/C=C/C=C/C=C/C=C(\C)[C@@H](O)C[C@H](O)C[C@H](O)C[C@H](O)C[C@H](O)C[C@H](O)C[C@@H]1O`, for which the MIC came out at 6.25 µg/mL (≈ 10.2 µM).

In the case of `C\C1=C/C=C/C=C/C=C/C=C/C[C@@H](C)OC(=O)C[C@@H](O)C[C@@H](O)C[C@@H](O)C[C@@H](O)C[C@@H](O)C[C@@H](O)C[C@@H]1O`, the MIC is over 12.5 µg/mL.

For `CCCCC[C@H]1C(=O)O[C@H](C)[C@@H](O)/C=C/C=C/C=C/C=C/C=C(\C)[C@@H](O)C[C@H](O)C[C@H](O)C[C@H](O)C[C@H](O)C[C@H](O)C[C@@H]1O`, the MIC is 3.13 µg/mL (≈ 5.01 µM).

For the compound `C[C@@H]1C/C=C/C=C/C=C/C=C/C=C/[C@@H](O)C[C@H](O)C[C@H](O)C[C@H](O)C[C@H](O)C[C@H](O)C[C@H](O)CC(=O)O1`, the MIC was over 12.5 µg/mL.

Turning to `C\C1=C/C=C/C=C/C=C/C=C/[C@H](O)[C@@H](C)OC(=O)[C@H](CCC(C)C)[C@@H](O)C[C@@H](O)C[C@@H](O)C[C@@H](O)C[C@@H](O)C[C@@H](O)C[C@@H]1O`, the MIC came to 3.13 µg/mL (≈ 5.01 µM).

In the case of `CCCCCC[C@H]1C(=O)O[C@H](C)[C@@H](O)/C=C/C=C/C=C/C=C/C=C(\C)[C@@H](O)C[C@H](O)C[C@H](O)C[C@H](O)C[C@H](O)C[C@H](O)C[C@@H]1O`, the MIC was found to be 1.56 µg/mL (≈ 2.44 µM).

For the compound `C\C1=C/C=C/C=C/C=C/C=C/[C@H](O)[C@@H](C)OC(=O)C[C@@H](O)C[C@@H](O)C[C@@H](O)C[C@@H](O)C[C@@H](O)C[C@@H](O)C[C@@H]1O`, the MIC is over 12.5 µg/mL.

Consider `CC(C)CC[C@H]1C(=O)O[C@H](C)[C@@H](O)/C=C/C=C/C=C/C=C/C=C/[C@@H](O)C[C@H](O)C[C@H](O)C[C@H](O)C[C@H](O)C[C@H](O)C[C@@H]1O`, for which the MIC was over 12.5 µg/mL.

On to `C[C@@H]1[C@H](O)[C@@H](C)/C=C/C=C/C=C/C=C/C=C/C=C/C=C/[C@H](O[C@@H]2O[C@H](C)[C@@H](O)[C@H](N)[C@@H]2O)C[C@@H]2O[C@](O)(C[C@@H](O)C[C@@H](O)[C@H](O)CC[C@@H](O)C[C@@H](O)CC(=O)O[C@H]1C)C[C@H](O)[C@H]2C(=O)O` [AMPHOTERICIN B], for which the MIC amounted to 0.2 µg/mL (≈ 0.216 µM).

Turning to `CCCCC[C@@H](O)[C@H]1C(=O)O[C@H](C)[C@@H](O)/C=C/C=C/C=C/C=C/C=C(\C)[C@@H](O)C[C@H](O)C[C@H](O)C[C@H](O)C[C@H](O)C[C@H](O)C[C@@H]1O` [FILIPIN], the MIC was found to be 12.5 µg/mL (≈ 19.1 µM).
